Test results as given in PMC7751820, “Synthesis, cytotoxic assessment, and molecular docking studies of 2,6-diaryl-substituted pyridine and 3,4- dihydropyrimidine-2(1H)-one scaffolds” (Turkish Journal of Chemistry, 2020).
Values after ≈ are worked out from the molar mass of the structure shown. Where two headings read alike, the source gives them in different places.

What was measured:
[1] = tested on: MCF-7 cell line (human breast adenocarcinoma); experiment: MTT cytotoxicity assay, MCF-7 cells; format: cell-based; details: for IC 50 (μg/mL) MCF-7 / IC50: MTT; for IC50: Homo sapiens, read-out: IC 50 (μg/mL) MCF-7; for effect on cell viability in MCF-7 cells: different concentrations, Figure 6, 24 h
Protocol: (§1) FBS, PBS, trypsin, penicillin, streptomycin, DMSO, 3-[4,5-dimethyl thiazol-2-yl]-2,5-diphenyltetrazoliumbromide (MTT), Triton X-100, and RPMI-1640 medium supplemented with 10% heat inactivated FBS were purchased from Sigma-Aldrich. The AGS, HEK293, and MCF7 cell lines were purchased from the National Cell Bank of Iran, Pasteur Institute of Iran, Tehran, Iran.
(§2) In this research, the effects of synthesized compounds on the viability of MCF-7, AGS, and HEK cells were evaluated at various concentrations (0.39–200 μg/mL) utilizing 3-(4,5-dimethylthiazol-2-yl)-2,5-diphenyltetrazolium bromide (MTT) assay. After thawing, the cells were cultured in RPMI 1640 medium containing 10% FBS, penicillin (100 U/mL), and streptomycin ([…]) at 37 °C in a humidified 5% CO2 incubator. The cells were seeded in a 96-well plate at a density of 5000 cells per well (the cells were stained with trypan blue and counted with a hemocytometer). The cells were incubated overnight at 37 °C before cell viability testing. A stock suspension of each of the synthesized compounds at 50 mg/mL in distilled water was prepared. After that, fresh suspensions of different concentrations of the synthesized compounds (2-fold serial dilutions from 0.39 to 200 μg/mL) were made using serial dilutions of the stock suspensions of the synthesized compounds in the RPMI 1640 medium immediately before use. Next, 200 μL of suspension (different concentrations of synthesized compounds) was added to each well of the micropentaplicates. The cells were incubated for 24 and 48 h under the same conditions. Wells without any synthesized compounds served as a negative control. The experiments were performed in pentaplicate for each concentration. To assess cell survival, 100 μL of MTT solution (2 mg/mL in PBS) was added to each well and incubated for 3 h at 37 °C to produce insoluble formazan. Next, 100 μL of DMSO was added to dissolve the formazan crystals, and the absorbance was measured using an Infinite M200 ELISA plate reader (Tecan, Männedorf, Switzerland) at 570 nm, with 630 nm as a reference wave length. The percentage of cell viability was calculated via the formula (A test /A control ) ×100, in which A test is the average absorbance of the treated cells and A control is the average absorbance of the negative control.
(§3) Cytotoxicity assessment of the cell lines were performed in pentaplicate, and the results were computed as mean ±SD. The experimental results were analyzed using one-way ANOVA analysis in SPSS 16.0 for Windows (SPSS Inc., Chicago, IL, USA) and P <0.05 was considered significant. The IC 50 values were calculated by nonlinear regression analysis using Finney probit analysis in SPSS.

[2] = tested on: HEK293 cells (human embryonic kidney); experiment: MTT cytotoxicity assay, HEK293 normal cells; format: cell-based; details: for IC50: Homo sapiens, read-out: IC 50 (μg/mL) HEK293; for cytotoxicity against HEK293 cells compared to the other analogs: pyridine derivatives, Figure 6, 24 h
Protocol: as §1, §2, §3

[3] = tested on: AGS cells (gastric adenocarcinoma); experiment: MTT cytotoxicity assay, AGS cells; format: cell-based, human; details: for IC50: Homo sapiens, AGS cells, MTT
Protocol: as §1
In this research, the effects of synthesized compounds on the viability of MCF-7, AGS, and HEK cells were evaluated at various concentrations (0.39–200 μg/mL) utilizing 3-(4,5-dimethylthiazol-2-yl)-2,5-diphenyltetrazolium bromide (MTT) assay. After thawing, the cells were cultured in RPMI 1640 medium containing 10% FBS, penicillin (100 U/mL), and streptomycin ([…]) at 37 °C in a humidified 5% CO2 incubator. The cells were seeded in a 96-well plate at a density of 5000 cells per well (the cells were stained with trypan blue and counted with a hemocytometer). The cells were incubated overnight at 37 °C before cell viability testing. A stock suspension of each of the synthesized compounds at 50 mg/mL in distilled water was prepared. […] Next, 100 μL of DMSO was added to dissolve the formazan crystals, and the absorbance was measured using an Infinite M200 ELISA plate reader (Tecan, Männedorf, Switzerland) at 570 nm, with 630 nm as a reference wave length. The percentage of cell viability was calculated via the formula (A test /A control ) ×100, in which A test is the average absorbance of the treated cells and A control is the average absorbance of the negative control.
as §3

[4] = MCF-7 cells, Table 7, 24 h per Figure 6
[5] = HEK293 cells, MTT, Table 7, 24 h per Figure 6
[6] = MCF7, 24 h, MCF-7 cells, Table 7, 24 h per Figure 6

SMILES	melting point	IC 50 (μg/mL) MCF-7 [1, 4]	IC50 [1, 6]	IC50 [2, 5]	effect on cell viability in MCF-7 cells [1]	cytotoxicity against HEK293 cells compared to the other analogs [2]	also measured
N#Cc1c(-c2c(Cl)cccc2Cl)cc(-c2ccccc2)nc1N [5l, 2-Amino-4-(2,6-dichlorophenyl)-6-phenylnicotinonitrile]	174 to 176 °C	–	–	–	–	–	–
CCOC(=O)C1=C(C)NC(=O)NC1c1cccs1 (stereo not drawn) [4m]	–	128.00 µg/mL (≈ 481 µM)	–	–	–	–	IC 50 (μg/mL) HEK293 [2, 5]: 146.25 µg/mL (≈ 549 µM)
N#Cc1c(-c2cccc(Cl)c2)cc(-c2ccccc2)nc1N [5c, 2-Amino-4-(3-chlorophenyl)-6-phenylnicotinonitrile]	168 to 170 °C	–	307 µg/mL (≈ 1000 µM)	> 1000 µg/mL	–	–	–
N#Cc1c(-c2ccccc2F)cc(-c2ccccc2)nc1N [5g]	–	–	71.9 µg/mL (≈ 249 µM)	950 µg/mL (≈ 3280 µM)	considerable decrease in cell viability	less cytotoxic	–
CCOC(=O)C1=C(C)NC(=O)NC1c1c(Cl)cccc1Cl (stereo not drawn) [4r]	–	–	–	–	–	–	IC50 ([3]; 24 h, read-out: IC 50 (μg/mL) AGS (24 h)): 30 µg/mL (≈ 91.1 µM); IC50 ([3]; 48 h, read-out: IC 50 (μg/mL) AGS (48 h)): 4.97 µg/mL (≈ 15.1 µM); death of AGS cells ([3]; after treatment for 24 and 48 h, different concentrations (Figure 5)): ≥ 50%; IC50 ([1]; MCF7, MCF-7 cells, Table 6 (DHPMs 4j, 4r)): 0.17 µg/mL (≈ 0.516 µM); IC50 ([2]; HEK293): > 200 µg/mL
N#Cc1c(-c2ccc(Cl)cc2Cl)cc(-c2ccccc2)nc1N [5m, 2-Amino-4-(2,4-dichlorophenyl)-6-phenylnicotinonitrile]	179 to 181 °C	82.90 µg/mL (≈ 244 µM)	82 µg/mL (≈ 241 µM)	259 µg/mL (≈ 760 µM)	considerable decrease in cell viability	less cytotoxic	–
